Data from PubChem BioAssay (NCI).
Where “and” joins values, the source holds several entries; their conditions need not be identical. Equal entries are not always repeated.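 Briefly, cells in 96-well plates were exposed to five compound concentrations for 48 h, and endpoints were estimated by linear interpolation. Abbreviation: GI50, concentration required for 50% inhibition of growth. At the TGI there is no net growth.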

What was measured:
Assay in all cases: NCI tumour cell line growth inhibition, 48 h
SW-620 colon = test system: SW-620 colon
UACC-257 melanoma = test system: UACC-257 melanoma
NCI-H226 lung = test system: NCI-H226 lung
OVCAR-4 ovarian = test system: OVCAR-4 ovarian
SNB-75 CNS = test system: SNB-75 CNS
PC-3 prostate = test system: PC-3 prostate
A549 NSCLC = test system: A549 NSCLC
DU-145 prostate = test system: DU-145 prostate
KM12 colon = test system: KM12 colon
HOP-92 NSCLC = test system: HOP-92 NSCLC

SMILES	GI50 (SW-620 colon) [µM]	TGI (SW-620 colon) [µM]	GI50 (UACC-257 melanoma) [µM]	TGI (UACC-257 melanoma)	GI50 (NCI-H226 lung) [µM]	TGI (NCI-H226 lung)	GI50 (OVCAR-4 ovarian)	TGI (OVCAR-4 ovarian)	GI50 (SNB-75 CNS) [µM]	TGI (SNB-75 CNS)	GI50 (PC-3 prostate)	TGI (PC-3 prostate)	GI50 (A549 NSCLC) [µM]	TGI (A549 NSCLC) [µM]	GI50 (DU-145 prostate) [µM]	TGI (DU-145 prostate)	GI50 (KM12 colon)	TGI (KM12 colon)	GI50 (HOP-92 NSCLC) [µM]	TGI (HOP-92 NSCLC)
COc1cccc2c(=O)c3c(sc12)c(N1CCNCC1)nc1ccccc13	1.49	3.09	2.09	4.45 µM	1.58	3.18 µM	1.8 µM	3.62 µM	1.56	2.98 µM	1.62 µM	3.28 µM	1.81	4.26	1.72	3.19 µM	1.79 µM	3.41 µM	1.24	2.73 µM
CN(CCC#N)c1ccc(/C=C(\C#N)c2ccc(Br)cc2)cc1	3.87	> 100	> 100	> 100 µM	> 100	> 100 µM	> 100 µM	> 100 µM	–	–	> 100 µM	> 100 µM	–	–	> 100	> 100 µM	3.7 µM	> 100 µM	2.52	> 100 µM
COc1ccc(C(=O)COc2ccc(/C=C3\COc4ccc(OC)cc4C3=O)cc2)cc1	4.99	> 100	52.1	> 100 µM	54.7	> 100 µM	17.4 µM	69.2 µM	20	69.9 µM	12.8 µM	47.1 µM	> 100	> 100	31	> 100 µM	8.72 µM	85.8 µM	–	–
C/C(N=NC(=S)N(C)C)=C1\C=CC=CN1O	–	> 100	–	> 100 µM	–	> 100 µM	–	> 100 µM	–	> 100 µM	–	> 100 µM	–	> 100	–	> 100 µM	–	> 100 µM	–	> 100 µM
C=C1C(=O)OC2/C=C(\COC(C)=O)CCC(OC(C)=O)C3=CC(OC3=O)C12 (stereo not given)	–	4.47	–	6.65 µM	–	46.4 µM	–	52 µM	–	35.6 µM	–	30.5 µM	–	43	–	> 100 µM	–	22.1 µM	–	12.5 µM
O=C1CC2c3ccccc3CCC2c2ccccc21 (stereo not given)	–	> 100	–	73.2 µM	–	52.4 µM	–	–	–	> 100 µM	–	90.6 µM	–	> 100	–	> 100 µM	–	26.8 µM	–	–
C=C1CCC(CC[C@@H]2CC[C@]3(OC2)O[C@@]2(O)CC[C@]3(C)OC2(C)C)C(C)(C)[C@H]1C/C=C1/C(=O)OC[C@@H]1O (stereo not given in full)	–	12.6	–	4.84 µM	–	6.94 µM	–	5.51 µM	–	19.3 µM	–	10.7 µM	–	19.4	–	14.8 µM	–	6.35 µM	–	6.51 µM
Br[C](Br)(Br)[Hg][c]1ccccc1	1.65	8.01	13.5	26.7 µM	16.8	35.8 µM	19.9 µM	41.9 µM	15.8	32.6 µM	14.7 µM	28 µM	29.4	59.5	18.1	35 µM	15.6 µM	29.4 µM	12.5	25.3 µM
O=S(=O)(Nc1cc(Sc2cccc3cccnc23)c(O)c2ccccc12)c1ccccc1	1.04	11.6	1.87	5.01 µM	2.45	25.4 µM	0.474 µM	1.75 µM	3.23	16.9 µM	0.467 µM	13.1 µM	0.747	18.1	0.828	9.83 µM	2.03 µM	16.5 µM	2.61	7.38 µM
CCCCON(OC(=O)c1ccc2ccc3cccc4ccc1c2c34)C(C)=O	18.5	39.1	60.3	> 100 µM	21	53.3 µM	23.5 µM	59.9 µM	19.9	41.7 µM	22.2 µM	56.7 µM	39.1	> 100	31.1	> 100 µM	28.8 µM	> 100 µM	16.3	44.3 µM
Nc1ccc2cc3ccc(N)cc3nc2c1	–	–	0.994	5.03 µM [middle of 4 runs]	–	4.3 µM [middle of 4 runs]	1.21 µM [middle of 4 runs]	4.23 µM [middle of 4 runs]	–	3.25 µM [middle of 4 runs]	0.857 µM and 1.96 µM and 1.5 µM	4.88 µM and 24.7 µM	–	–	1.45	18.1 µM and 10 µM and 9.47 µM	631 nM [middle of 4 runs]	6.73 µM [middle of 4 runs]	–	6.14 µM and 6.32 µM and 7.11 µM
O=C(O)C1C(Br)(c2ccccc2)C1(Br)c1ccccc1 (stereo not given)	–	> 100	–	> 100 µM	–	> 100 µM	–	64.1 µM	–	93.9 µM	–	> 100 µM	–	> 100	–	> 100 µM	–	> 100 µM	–	> 100 µM
ClCC[N+]12CC[N+](CCCl)(CC1)C2	–	> 100	–	> 100 µM	–	> 100 µM	–	> 100 µM	–	> 100 µM	–	> 100 µM	–	> 100	–	> 100 µM	–	> 100 µM	–	> 100 µM
C[C@H](O)C(=O)N1CCC(CCn2c(Sc3cc4c(cc3Br)OCO4)nc3c(N)ncnc32)CC1	0.49	> 100	2.13	> 100 µM	4.01	> 100 µM	> 20.1 µM	> 100 µM	9.04	> 100 µM	1.16 µM	> 100 µM	0.869	> 100	0.642	> 100 µM	0.424 µM	9.86 µM	2.19	> 100 µM
O=c1c2ccccc2c(=O)c2c1[nH]c1c(-c3ccccc3)c(-c3ccccc3)c(=O)c12	3.85	14.1	2.46	8.22 µM	3.56	44.5 µM	6.43 µM	> 100 µM	15.1	52.1 µM	2.67 µM	11.1 µM	2.07	6.6	2.71	9.44 µM	2.3 µM	6.34 µM	3.23	12.7 µM
Cc1ccc(-c2nc3ccc(Cl)cc3c(=O)n2N2C(=O)CSC2c2ccccc2Cl)cc1 (stereo not given)	> 100	> 100	> 100	> 100 µM	5.14	> 100 µM	4.54 µM	> 100 µM	1.39	4.74 µM	83 µM	> 100 µM	–	–	58.4	> 100 µM	> 100 µM	> 100 µM	6.74	> 100 µM
COc1cc(/C=C/c2ccc(OC)c(OC)c2)cc(OC)c1	–	> 100	–	> 100 µM	–	74.4 µM	–	> 100 µM	–	> 100 µM	–	> 100 µM	–	> 100	–	> 100 µM	–	40.6 µM	–	> 100 µM
CC(C)C[C@H](NC(=O)/C=C/Cn1ccc2ccccc2c1=O)B(O)O	3.55	> 100	2.12	7.02 µM	1.76	3.63 µM	–	–	3.2	16.3 µM	17.4 µM	> 100 µM	5.35	> 100	8.78	> 100 µM	4.54 µM	19 µM	6.49	30.4 µM
Clc1ccc(C=Nc2ccc3c(c2)Cc2ccccc2-3)c(Cl)c1	–	> 100	–	> 100 µM	–	> 100 µM	–	> 100 µM	–	> 100 µM	–	> 100 µM	–	> 100	–	> 100 µM	–	> 100 µM	–	> 100 µM
COc1cc(/C=C/c2cc(/C=C/c3ccc(O)c(OC)c3)n(C(=O)Nc3ccc(C)cc3C)n2)ccc1O	–	–	1.46	5.25 µM	0.389	2.1 µM	0.464 µM	2.99 µM	–	–	0.379 µM	5.01 µM	0.43	3.2	0.387	1.5 µM	–	–	0.576	3.71 µM
O=C1CSC(c2ccc(Cl)cc2Cl)N1c1ccc(F)cc1 (stereo not given)	21.7	37.5	20.1	36.5 µM	18.2	38.2 µM	16.8 µM	31.9 µM	–	–	18.5 µM	35.5 µM	19.1	36.1	16.1	29.6 µM	15.6 µM	29.8 µM	17.6	32.8 µM
CC1=C(C(=O)Nc2ccc(F)c(Cl)c2)C(c2cccc(O)c2)NC(=O)N1 (stereo not given)	> 100	> 100	54.3	> 100 µM	85.9	> 100 µM	–	–	17.8	68.3 µM	63.9 µM	> 100 µM	> 100	> 100	> 100	> 100 µM	61.4 µM	> 100 µM	47.5	> 100 µM
CC(=O)N[C@H]1CSSC[C@@H](C(N)=O)NC(=O)[C@H](C(C)C)NC(=O)[C@H](C)NC(=O)[C@H](Cc2cnc[nH]2)NC1=O	–	–	> 100	> 100 µM	> 100	> 100 µM	> 100 µM	> 100 µM	–	–	> 100 µM	> 100 µM	> 100	> 100	> 100	> 100 µM	> 100 µM	> 100 µM	> 100	> 100 µM
O=C(/C=C\c1ccc(NCc2ccc(C(=O)O)cc2)cc1)CCl	3.14	11.6	11.4	23.8 µM	17.1	41.6 µM	13.9 µM	26.9 µM	13.4	26.3 µM	14.2 µM	28.9 µM	17.2	33	17.3	31.9 µM	17 µM	32 µM	–	–
CCOc1cc(C(C)(C)C)ccc1C1=N[C@@](C)(c2ccc(Cl)cc2)[C@@](C)(c2ccc(Cl)cc2)N1C(=O)N1CCN(CCCS(C)(=O)=O)CC1	11.2	29.3	2.02	15.8 µM	0.462	2.11 µM	7.33 µM	22.5 µM	3.64	17.3 µM	–	–	1.01	19.4	11	25.6 µM	11.4 µM	28 µM	2.31	8.17 µM
C[C@]12CC[C@@H]3c4cc(OCC(F)(F)F)c(O)cc4/C(=N/O)C[C@H]3[C@@H]1CC[C@@H]2O	0.0403	> 48.1	–	45.5 µM	–	> 40.8 µM	–	39 µM	–	–	–	12 µM	–	35.6	0.0673	> 54 µM	–	11.2 µM	–	26.3 µM
CCn1c(SCc2ccc(C)cc2)nnc1-c1nn(-c2ccc(Cl)cc2Cl)c(-c2ccc(Cl)cc2)c1C	2.56	12.6	–	–	2.26	13.9 µM	1.79 µM	12.4 µM	2.21	11.7 µM	0.49 µM	10.4 µM	2.82	11.3	3.3	13.8 µM	1.04 µM	6.31 µM	0.53	4.22 µM
CC(CO)(CO)NCCCCn1ccc2c1C(=O)c1c(c(O)c3ccccc3c1O)C2=O	5.47	29.2	–	–	–	–	–	–	–	–	1.52 µM	3.11 µM	–	–	16.1	30.5 µM	1.4 µM	2.7 µM	5.73	22.7 µM
O=C(CCC1OCCO1)Nc1cc(NCc2ccccc2)ccc1OCc1ccccc1	–	> 100	–	53.3 µM	–	> 100 µM	–	> 100 µM	–	> 100 µM	–	–	–	> 100	–	> 100 µM	–	97.9 µM	–	73.3 µM
COc1c(CCl)cc(-c2cc(=O)c3ccccc3s2)cc1CCl	–	–	–	> 100 µM	–	> 31.6 µM	–	16.4 µM	–	24.9 µM	–	> 100 µM	–	> 100	–	> 100 µM	–	> 100 µM	–	1.8 µM
